Entries after “also recorded” stand apart in the source; their conditions may differ.

Data on one compound can be found in publication PMC4604408, “Targeting the Parasite's DNA with Methyltriazenyl Purine Analogs Is a Safe, Selective, and Efficacious Antitrypanosomal Strategy” (Antimicrobial Agents and Chemotherapy, 2015).

One data set relates to Tbb msh2+/+. The data set can be described thus: microbe, parasite or virus in culture. In kind it is cell-based, Trypanosoma brucei. Particulars: Trypanosoma brucei, read-out: Tbb msh2+/+ (EC50; µM) AVG.
Data set [1] concerns BF T. brucei. Nature of the data set: growth curves of treated bloodstream-form trypanosomes. The format is cell-based. Particulars: 15 µM for 72 h in Fig. S7. How it is done:
Given its promising antiparasitic efficacy in vitro and in vivo, we selected lead compound 1 for further antitrypanosomal mechanism-of-action studies. […] We analyzed the DNA content of these cells over 24 h by flow cytometry (Fig. 3B; see also Fig. S7 in the supplemental material). After 4 h of exposure to 15 μM compound 1, we observed a decrease in the proportion of cells with normal diploid (2C) DNA content, whereas an aberrant population of cells started to appear with a DNA content between 2C and 4C. […] We also monitored the karyotype distribution of BF T. brucei over time (see Fig. S8 in the supplemental material), using DAPI staining to visualize nuclei (N) and kinetoplasts (K). Within the first 8 h (the normal time to complete one cell cycle) of exposure to compound 1, we observed a significant increase in 1N2K cells, with a coincident decrease in 1N1K and 2N2K. […]
FIG 3 Methyltriazenyl purines cause cell cycle arrest in the G2/M phase in T. brucei. […] (b) DNA content of BF T. brucei in the presence or absence of 15 μM compound 1, as determined by propidium iodide staining of fixed cells and measured by fluorescence-activated cell sorting (FACS). […]
Figure S7. […] B) Long term growth curve of bloodstream form T.b. brucei s427 cultures (seeded at 5 × 10^5 cells/mL) exposed to 15 µM of 1 (closed squares) or vehicle only (open circles) monitored for 72 hours. […]

Data set [2] deals with HEK293 (human embryonic kidney 293T cells). Nature of the data set: cells. The following applies: read-out: In vitro activity (EC50) HEK293.
A further data set deals with BF T. brucei brucei. The data set can be described thus: TUNEL assay for DNA strand breaks in trypanosomes. In kind it is cell-based. Particulars: 3 μM, 24 h.
Data set [3] is classed as in vivo. Particulars: up to 10 × 50 mg/kg i.p. daily.
The subject of data set [4] is bloodstream-form T. brucei. The data set can be described thus: potency in Creek's minimal medium with inosine or hypoxanthine as purine source. The format is cell-based.
Data set [5] relates to T. brucei brucei (STIB 795). Nature of the data set: mouse model of acute trypanosomiasis. The following applies: female NMRI mice, 50 mg/kg i.p. daily for 4 days from day 3 postinfection. The format is in vivo.
Another data set relates to Tbb msh2-/-. The data set can be described thus: microbe, parasite or virus in culture. The format is cell-based, Trypanosoma brucei.
Data set [6] has as its system freshly isolated rat hepatocytes. The data set can be described thus: hepatotoxicity on freshly isolated rat hepatocytes. In kind it is cell-based. Particulars: 100 µM, up to 120 min. On the procedure: page 11: Figure S3 A B C 125 125 125 100 100 100 75 75 75 50 50 50 25 Contr ol 25 Contr ol 25 Contr ol 0 + NA1371 0 +NA1371 0 +NA1371 0 30 60 90 120 0 30 60 90 120 0 30 60 90 120 […] ) Figure S3. […] (A) Hepatocytes from male Sprague-Dawley rats were isolated as described (4, 5) and hepatotoxicity assays were performed as described (6). […] or left untreated. Cell viability was determined by a Trypan blue exclusion test. Values are normalized to t=0 min (%). (B) The reduced glutathione (GSH) content of hepatocytes was determined by an O-phthaldehyde fluorimetric test. […] (C) The total protein content of hepatocytes was determined by a Lowry assay. […]

Data set [7] relates to BF T. brucei. The data set can be described thus: DNA content by propidium iodide staining and flow cytometry. The following applies: 15 μM, 24 h. In kind it is cell-based. In general terms: In flow cytometry, cells or beads pass a laser one at a time.
For the next data set, the system named is Tbb msh2+/-. The data set can be described thus: microbe, parasite or virus in culture. In kind it is cell-based, Trypanosoma brucei. The following applies: Trypanosoma brucei, read-out: Tbb msh2+/- (EC50; µM) AVG.
Data set [8] has as its system T. brucei rhodesiense (STIB 900). Nature of the data set: stringent mouse model of trypanosomiasis. In kind it is in vivo. Particulars: female NMRI mice, 50 mg/kg i.p. for four consecutive days from day 3 postinfection. On the procedure: The experiments were performed essentially as described previously ([26]). Female NMRI mice were infected intraperitoneally (i.p.) with 10^4 bloodstream-form T. brucei brucei (strain STIB 795) or 3 × 10^3 T. brucei rhodesiense (strain STIB 900). Experimental groups of four mice were treated i.p. with test drug daily on four consecutive days starting from day 3 postinfection. A control group was infected but remained untreated. The tail blood of each mouse was checked for parasitemia up to 60 days postinfection; mice were culled when parasitemia was >10^8 trypanosomes/ml of blood. Surviving and aparasitemic mice at day 60 were considered cured and were euthanized. All protocols and procedures used in this study were reviewed and approved by the local veterinary authorities of the Canton Basel-Stadt, Switzerland.
Figure S4. Methyltriazenyl purine 1 has a high cure rate in acute T. b. rhodesiense infection in vivo. Kaplan–Meier survival plot for female NMRI mice (n = 4 per group) after infection with T. b. rhodesiense (STIB900) (inoculum 3×10^3 parasites). Intraperitoneal injection with 1 dissolved in DMSO started 3 days after infection at a single dose of 50 mg/kg

The subject of data set [9] is T. brucei brucei 427 tbat1^−/−. Nature of the data set: microbe, parasite or virus in culture. The format is cell-based. Particulars: Trypanosoma brucei, read-out: In vitro activity (EC50) T. brucei brucei 427 tbat1^−/−.
Data set [10] can be described thus: spontaneous triazene hydrolysis by UV spectroscopy. The following applies: 50 µM in PBS at 37 °C, physiological conditions, n=2.
Data set [11] concerns T. brucei brucei WT (strain 427). The data set can be described thus: microbe, parasite or virus in culture. In kind it is cell-based.
Data set [12] relates to His– S. typhimurium strains TA98 and TAMix. Nature of the data set: Ames II mutagenicity assay. In kind it is cell-based, Salmonella typhimurium. The following applies: before (–S9) and after (+S9) metabolic activation, 62.5 µM to 2 mM. (In general: In the Ames test, an excess of revertant colonies over the control signals mutagenicity.)
In data set [13] the target is T. brucei H2 (hypoxanthine transporter 2 of T. brucei brucei). In kind it is cell-based. The following applies: read-out: Transport (Ki value) T. brucei H2.

As usually defined, the half-life is how long it takes for the measured level to halve. A high value points to slow decline. The Ki is a measure of affinity in units of concentration, obtained from inhibition or displacement. With `CC(=O)N(C)N=Nc1nc(O)c2[nH]cnc2n1` [Compound 1, 2-(3-acetyl-3-methyltriazen-1-yl)-6-hydroxypurine], the EC50 in the data set on Tbb msh2+/+ is 0.87 µM; in [2], greater than 250000 nM; in the data set on Tbb msh2-/- (Trypanosoma brucei, read-out: Tbb msh2-/- (EC50; µM) AVG), 3.9 µM; with Tbb msh2+/-, 1.5 µM; in data set [9], 520 ± 80 nM; in data set [11] (Trypanosoma brucei, read-out: In vitro activity (EC50) T. brucei brucei WT) it was 420 ± 50 nM. Moreover, the “effect on culture proliferation” value with BF T. brucei [1] was “Cell growth is arrested and the cells eventually die; also recorded: arrested in its proliferation”. In addition, the “increase in BrdU incorporation (DNA strand breaks)” value with BF T. brucei brucei amounted to 2 fold. Besides, the tolerability entry in [3] is reported as “well tolerated”. Besides, the “sensitivity (EC50) in medium with inosine compared to hypoxanthine as purine source” value in [4] is recorded as “higher”. The cure rate in data set [5] was 100%; in [8], 75%. The “survival of treated mice” value in data set [5] was greater than 60 days. Also, the “potency against cells with impaired or lost MSH2 activity” value in the data set with Tbb msh2-/- is listed as “reduced potency”. For the same compound, the “hepatotoxic effects, hepatocyte viability (Trypan blue exclusion)” value in data set [6] is listed as “does not show toxic effects; also recorded: no hepatotoxic effects”. In [6], the “total protein content of hepatocytes (Lowry assay)” value is on record as “No protein loss”. Besides, in the data set on BF T. brucei [7], the “DNA content of treated cells” value is “majority of cells having an apparent 4C DNA content”. Besides, in data set [10], the hydrolysis half-life is roughly 6.8 h. Moreover, the half-life at 50 µM in data set [10] (PBS, hydrolysis half-life) is 6.8 ± 0.4 h. Also, the “antitrypanosomal potency against BF T. brucei in vitro (in words)” value in data set [11] is given as “submicromolar”. Also, the “SI, in vitro selectivity index” value in data set [11] (EC50(HEK)/EC50(T. brucei brucei WT)) is given as greater than 595. For the same compound, in [12], the “mutagenic activity in Ames II test” value is “negative (not mutagenic); also recorded: did not reveal any mutagenic activity”. The Ki in [13] is 590 ± 150 nM.
